# Measured values as given in PubChem BioAssay AID2305 (GlaxoSmithKline (GSK), 2010).
# Tested on: P. falciparum 3D7 growth, pLDH absorbance
# Experiment: blood-stage malaria parasite growth potency – strain 3D7, dose response (AID 2305)
row,SMILES,IC50 [nM]
1,OC(CNc1ccnc(Nc2cccc(OCCCN3CCOCC3)c2)n1)c1ccccc1 (configuration not stated),920
2,O=C(NC1CC1)c1ccc(N2CCCC(COc3ccccc3F)C2)nc1 (configuration not stated),900
3,O=C(NCc1cccc(C(F)(F)F)c1)c1ccc(CNC(=O)c2ccc(O)c(-c3ccc(Cl)c(Cl)c3)c2)cc1,840
4,Cc1[nH]nc2ccc(-c3cc(OC[C@@H](N)Cc4ccccc4)cnc3-c3cc4ccccc4s3)cc12,810
5,COc1cccc(CN2CCC(N3CCc4cc(NC(=O)c5cc(C)on5)ccc43)C2)c1OC (configuration not stated),950
6,CCn1c(-c2nonc2N)nc2cnc(Oc3cccc(NC(=O)c4ccc(OCCN5CCCCC5)cc4)c3)cc21,1060
7,O=S(=O)(NCCN1CCCC1)c1ccc(-c2ccc(CNCc3ccccc3)cc2)cc1F,1290
8,Cc1nc(C)c(-c2ccc(Oc3ccc(OC(F)(F)F)cc3)cc2)c(OC(=O)N(CCNC(C)C)C(C)C)c1Br,170
9,Cc1cc(Oc2ccc(-n3ccnc3)cc2)nc(N2CCN(CCCN3CCCC3)CC2)n1,930
10,C#Cc1cccc(NC(=O)[C@H](CC2CCCCC2)Nc2ccc(C#N)c3ccccc23)c1,590
11,COc1nc2c(CCN3CC[C@H](NCc4ccc5c(c4)NC(=O)CO5)[C@H](O)C3)c(Cl)cnc2cc1F,1020
12,Cc1nc(N)nc(N)c1OCCCCOc1ccccc1,50
13,O=C(/C=C/c1cccs1)NCC(NCCCNc1cc(=O)c2ccccc2[nH]1)c1cc(Br)cc(Br)c1 (configuration not stated),890
14,COc1cccc(C(=O)NC(c2ccc(Cl)cc2Cl)c2cc(Cl)c3cccnc3c2O)c1 (configuration not stated),450
15,CCN(CC)CCN(Cc1ccc(-c2ccc(C(F)(F)F)cc2)cc1)C(=O)c1c[nH]c2ccc(Br)cc12,950
16,COc1cccc2cc(C(=O)N[C@@H](CC(C)C)C(=O)N[C@H](/C=N/NC(=O)Cc3cccnc3)CCc3ccccc3)oc12,950
17,OCCN1CCN(Cc2ccc(-c3ccc(-c4nc5ccc(C(F)(F)F)cc5[nH]4)s3)cc2)CC1,380
18,C=CCn1c(C)cc(C(=O)COc2ccc(S(=O)(=O)N3CCOCC3)cc2[N+](=O)[O-])c1C,1110
19,Cc1ccc(NC(=O)c2cccc(CN3CCCN(Cc4cccc(O)c4)CC3)c2)cc1C,1040
20,CC(C)NC(=O)c1cccc(-c2ccc(OCCN3CCCC3c3cc4ccccc4[nH]3)cc2)c1 (configuration not stated),960
21,N#Cc1ccccc1Sc1ccccc1C(=O)Nc1ccc2ccccc2n1,510
22,COc1ccc(NC(=O)[C@H](CC(C)C)Nc2cc(C)nc(NCc3ccccc3C)n2)cc1,890
23,Fc1ccc(C(OCC2CCCN(Cc3cccc4cccnc34)C2)c2ccc(F)cc2)cc1 (configuration not stated),700
24,CCCC(C)Nc1nc(C)cc(N[C@@H](Cc2ccccc2)C(=O)NCc2ccc(C)cc2)n1 (some centres not stated),1120
25,COc1ccc(C2C(C(=O)Nc3cc(Cl)c(OC)cc3OC)c3ccccc3C(=O)N2C)cc1 (configuration not stated),820

row,SMILES,IC50 [nM]
1,COc1cccc(-c2ccc(C(=O)NC3CCN(Cc4ccc(C(C)(C)C)cc4)CC3)s2)c1,1600
2,CC(=O)c1c(Cc2ccccc2Cl)c[nH]c1C,850
3,Cc1cccc2[nH]c(-c3ccc(-c4ccc(CNC(C)C)cc4)cc3)nc12,680
4,OCC1CCN(Cc2ccc(-c3cccc(-c4nc5ccc(C(F)(F)F)cc5[nH]4)c3)cc2)CC1,480
5,NC(N)=Nc1nccc(NCc2ccccc2)n1,890
6,COc1ccc(C2=C(Nc3ccc4oc5ccccc5c4c3)c3ccccc3C2=O)cc1,830
7,COc1ccc(O)c(CN2CCN(c3cc(C)ccc3C)CC2)c1,1010
8,Cc1[nH]c(C)c(-c2ccc(-c3ccc(F)cc3)cc2)c(=O)c1Cl,660
9,O=C(/C=C/c1ccc(Cl)c(Cl)c1)NCCCCCN1CCC(c2c[nH]c3ccccc23)CC1,780
10,CC(C)(C)OC(=O)Cn1cnc2cc(NC(=O)c3cc([N+](=O)[O-])cc([N+](=O)[O-])c3)ccc21,310
11,O=C(NCCCCN1CCC(c2ccc3c(c2OCCO)CCCC3)CC1)c1sc(-c2ccc(C(F)(F)F)cc2)nc1CO,1050
12,O=[N+]([O-])c1ccc(-n2nc(-c3cccnc3)n(Cc3ccco3)c2=S)c(Cl)c1,200
13,Cc1ccc(NC(=O)c2cnc(N3CCN(c4ccncc4)CC3)c(Cl)c2)cc1,960
14,CN1CC(c2ccc(Cl)c(Cl)c2)OC1=N (configuration not stated),280
15,O=C(Nc1cccc(-c2ccc(-c3nc4ccc(F)cc4[nH]3)cc2)c1)Nc1ccc(F)c(F)c1F,110
16,CC(C)N(Cc1ccccc1)C(=O)CN1C(=O)COc2ccc(S(=O)(=O)N3CCCCCC3)cc21,250
17,CC(C)CNCc1ccc(-c2cccc(CN(CCN(C)C)C(=O)NCCc3ccccc3)c2)cc1,1060
18,CC1CN(Cc2ccc(C#N)cc2)CCN1c1ccc(NC(=O)c2cccs2)cc1 (configuration not stated),810
19,Cc1cc(N[C@@H](Cc2ccccc2)C(=O)NCCc2ccccc2)nc(NCc2ccccc2C)n1,880
20,NC(=NCCc1ccc(Cl)cc1)c1ccc(Cl)c(Cl)c1,1100
21,O=C(Nc1cccc(-c2cccc(-c3nc4ccccc4[nH]3)c2)c1)c1ccncc1,480
22,c1ccc(CSC2=NNC(c3ccccn3)S2)cc1 (configuration not stated),1480
23,COc1ccc(NC(=O)c2cc(-c3ccc(NC(C)=O)cc3)cnc2N)cc1,810
24,Cc1cc(N[C@@H](Cc2ccccc2)C(=O)NCCOc2ccccc2)nc(NCCOc2ccccc2)n1,1360
25,Cc1cccc2[nH]c(-c3cccc(-c4ccc(NC(=O)c5cnn6cccnc56)cc4)c3)nc12,210

row,SMILES,IC50 [nM]
1,COc1ccc2nccc([C@@H](O)CN3CCC(NC(=O)/C(=C/c4ccccc4)c4ccc(-c5ccccc5)cc4)CC3)c2c1,1050
2,CC(=O)c1ccccc1OCCSc1nnc(Cc2cccs2)n1C1CCCCC1,920
3,O=C(Nc1cccnc1)c1cc(C(=O)Nc2cccnc2)cc([N+](=O)[O-])c1,1120
4,CN(c1ccccc1C(=O)Nc1cc(Cl)ccc1Oc1ccccc1)S(=O)(=O)c1ccccc1,740
5,O=C(/C=C/c1ccc(Cl)c(Cl)c1)N1CCN(C(=O)Nc2cccc(C(F)(F)F)c2)CC1,700
6,CC(=NNC(=S)NCc1ccco1)c1ccccn1,250
7,CN(C)c1ccc(C2(c3ccccc3)N=C(N)N(CCCc3ccccc3)C2=O)cc1 (configuration not stated),970
8,Cc1nc(-c2ccc(-c3ccc(C(=O)Nc4ccc(C(C)C)c(OCCN(C)C)c4)cc3)c(C)c2)no1,870
9,O=C(Nc1ccc(CC(=O)N2CCc3cc(Cl)c(N4CCN(C/C=C/c5ccccc5)CC4)cc32)cc1)Nc1cccc([N+](=O)[O-])c1,760
10,Cc1nc(-c2cccc(Nc3ccnc4cc(-c5nccs5)ccc34)c2)no1,320
11,Cc1cc(-c2nc3cncc(-c4cccc(CN5CCCC5Cc5cccnc5)c4)c3n2C)nn1C (configuration not stated),130
12,CN1CCCN(Cc2ccc(-c3ccc(NC(=O)c4cccc(Cl)c4)cc3)cc2)CC1,860
13,Cc1nccn1CCNC(=O)CN1CCC2(CCC1=O)CC(=O)c1ccccc1O2 (configuration not stated),800
14,CC[C@H]1CN2CC[C@@H]1C[C@@H]2[C@@H](O)c1cc(-c2ccc(F)cc2)nc2ccc(OC)cc12,110
15,COCCN(C(=O)Cc1cccs1)C(C(=O)NCc1ccc(OC)cc1)c1ccc(C(C)C)cc1 (configuration not stated),840
16,CCCCc1cc(Cc2cnc(N)nc2N)cc(OC)c1OC,1040
17,CCC(=Cc1cccc([N+](=O)[O-])c1)C(=O)NCC1CCN(c2nc(N)c3cc(OC)c(OC)cc3n2)CC1,240
18,Cc1cc(C(F)(F)F)n2nc(C(=O)N(Cc3cncn3Cc3ccccc3F)CC3CC3)cc2n1,960
19,Nc1cccc(CNCc2ccc(-c3cccc(-c4nc5ccc(C(F)(F)F)cc5[nH]4)c3)cc2)c1,170
20,O=C(c1ccco1)N1CCN(c2ccc([N+](=O)[O-])c(NC3CC3)c2)CC1,750
21,CCN(CC)CCN(Cc1ccc(-c2ccc(C(F)(F)F)cc2)cc1)C(=O)CN1C(CCc2cccc(F)c2F)=NS(=O)(=O)c2ccccc21,240
22,CN1CCN=C1c1ccc(NC(=O)Nc2ccc(C3=NCCN3C)cc2)cc1,380
23,O=C(CCOc1ccccc1)NCC1CCCO1 (configuration not stated),1000
24,CCS[C@@H]1O[C@H](COC(=O)c2ccccc2)[C@H](OC(=O)c2ccccc2)[C@H](OC(=O)c2ccccc2)[C@H]1OC(=O)c1ccccc1,810
25,CCN(CC)CCCC(C)Nc1c2cc(OC)ccc2nc2cc(Cl)c([N+](=O)[O-])cc12 (configuration not stated),790

row,SMILES,IC50 [nM]
1,O=C(Nc1ccc(F)c(F)c1)c1ccc(CN2CCCN(Cc3cccc(F)c3)CC2)cc1,1120
2,CC(C#N)Cc1ccc(-c2cnc(N)c3cc(-c4ccnc(N)n4)ccc23)cc1 (configuration not stated),990
3,Cc1ccc(C(C)C)c(Oc2ccc3nc(N)nc(N)c3c2)c1,10
4,CN(c1ccc(NC(=O)Nc2cc(C(F)(F)F)ccc2F)cc1)c1ccnc(NCCN2CCOCC2)n1,510
5,CCOC(=O)N1CCN(CCCCCNc2cc(C)nc(/N=C(\N)Nc3ccc(Cl)cc3)n2)CC1,150
6,O=C(NCCCCCN1CCCN(C(=O)Nc2ccc(Cl)c(C(F)(F)F)c2)CC1)[C@@H]1C[C@H]1c1ccc(Cl)c(Cl)c1,850
7,COc1cc2c(cc1S(=O)(=O)c1ccc(NC(=O)Nc3ccc(F)cc3)cc1)CCN(C)CC2,470
8,O=C(CCCCCNC(=O)c1ccc(O)c(-c2ccc(Cl)c(Cl)c2)c1)NCCN1CCOCC1,830
9,CCN1CCN(c2cc(C)c3cc(NC(=O)c4cccc(OC)c4)ccc3n2)CC1,800
10,Cc1ccc(F)c(OCC2CCN(c3ccc(C(=O)NC4CC4)cn3)CC2)c1,730
11,CCN1CCN(c2cc(C)c3cc(NC(=O)c4ccc([N+](=O)[O-])c(C)c4)ccc3n2)CC1,650
12,CN1CCC=C(C(=O)NCC(C)(C)c2nc(-c3ccc(Cl)c(O)c3)c(-c3ccncc3)[nH]2)C1,1000
13,O=S(=O)(NCCN1CCCC1)c1cccc(-c2cccc(CNCc3ccccc3)c2)c1,810
14,Cc1nc2nc(N)nc(N)c2c(C)c1Cc1ccccc1Cl,110
15,N=C(N)c1ccc(-c2cc(-c3cccc(C(=N)N)c3)on2)cc1,10
16,COc1ccc(-c2c(-c3ccc(OCc4ccccc4)cc3O)n[nH]c2C(F)(F)F)cc1,1170
17,COc1ccccc1N1CCN(Cc2cc(C(C)C)c(C)cc2O)CC1,570
18,Cc1cccc2[nH]c(-c3cccc(-c4cccc(NC(=O)Nc5ccc(F)c(F)c5F)c4)c3)nc12,110
19,CN(C)CCN(C)Cc1cccc(-c2ccc3c(Nc4cc(O)c(Cl)cc4F)ccnc3c2)c1,240
20,NCc1ccc(Nc2nccc(Nc3ccc(-c4ccccc4)cc3)n2)cc1,890
21,CCOc1cc(C(=O)NCCCN2CCCCC2C)ccc1-c1nc2ccc(Cl)cc2[nH]1 (configuration not stated),1070
22,COc1cc(C)c(C(O)CNC(C)CCc2ccccc2)cc1C (configuration not stated),730
